US7183320B2, “Benzoylsulfonamides and sulfonylbenzamidines for use as antitumour agents” (Eli Lilly and Company, priority 2002, dated 2007)
pIC50: −log10 of the molar value.

System: HCT116 colon carcinoma cells
Experiment: HCT116 colon carcinoma cell growth inhibition (WST-1, 72 hr)
Assay type: cell-based, human
Conditions: 72 hr exposure
Method: HCT116 Colon Carcinoma Cell Growth Inhibition
HCT116 colon carcinoma cells were grown monolayer culture in RPMI 1640 medium supplemented with 10% fetal bovine serum and 1% penicillin-streptomycin (GibcoBRL, Grand Island, N.Y.). HCT116 cells in exponential growth phase were exposed to various concentrations of the test compounds at 37° C. for 72 hr in 5% carbon dioxide/air. After exposure to the agent, the cells were washed with 0.9% phosphate buffered saline. Growth inhibition was determined using WST-1 cell proliferation reagent as described above. The results are expressed as the growth fraction of treated cells compared with control cultures. Representative compounds of the present invention were tested for efficacy against the human colon HCT116 tumor cells.

| pIC50 | SMILES |
| --- | --- |
| 4.80 | CSc1ccc(-c2ccc(S(=O)(=O)NC(=O)c3ccc(Cl)cc3Cl)cc2)cc1 [Example 108, N-[2,4-dichlorobenzoyl]-4-(1-methylsulfanylo-phen-4-yl)phenylsulfonamide] |
| 4.42 | COC(=O)c1ccc(-c2ccc(S(=O)(=O)NC(=O)c3ccc(Cl)cc3Cl)cc2)cc1 [Example 123, N-[2,4-dichlorobenzoyl]-4-(1-methoxycarbonyl-phen-4-yl)phenylsulfonamide] |
| 4.60 | CC(=O)c1cccc(-c2ccc(S(=O)(=O)NC(=O)c3ccc(Cl)cc3Cl)cc2)c1 [Example 109, N-[2,4-dichlorobenzoyl]-4-3′-acetyl-biphenylsulfonamide] |
| 4.59 | COc1ccccc1-c1ccc(S(=O)(=O)NC(=O)c2ccc(Cl)cc2Cl)cc1 [Example 122, N-[2,4-dichlorobenzoyl]-4-(1-methoxy-phen-2-yl)phenylsulfonamide] |

Same assay, conditions: Homo sapiens, HCT-116, 72 hr exposure

| SMILES | pIC50 |
| --- | --- |
| O=C(NS(=O)(=O)c1ccc(F)cc1)c1ccc([N+](=O)[O-])cc1Cl [Example 101, N-[2-chloro-4-nitrobenzoyl]-4-fluoro-phenylsulfonamide] | 4.91 |
| O=C(NS(=O)(=O)c1ccc(Cl)c(Cl)c1)c1ccc([N+](=O)[O-])cc1Cl [Example 21, N-[2-chloro-4-nitrobenzoyl]-3,4-dichlorophenyl-sulfonamide] | 4.52 |
| CC(C)c1ccc(S(=O)(=O)NC(=O)c2ccc(Cl)cc2Br)cc1 [Example 73, N-[2-bromo-4-chlorobenzoyl]-4-isopropylphenyl-sulfonamide] | 5.08 |
| CC(C)c1ccc(S(=O)(=O)NC(=O)c2ccc(C(F)(F)F)cc2C(F)(F)F)cc1 [Example 63, N-[2,4-bis-trifluoromethylbenzoyl]-4-isopropylphenyl-sulfonamide] | 4.61 |
| Cc1cccc(S(=O)(=O)NC(=O)c2ccc(C(F)(F)F)cc2C(F)(F)F)c1 [Example 50, N-[2,4-bis-trifluoromethylbenzoyl]-3-methylphenylsulfonamide] | 4.98 |
| COc1cc(C)ccc1S(=O)(=O)NC(=O)c1ccc(Cl)cc1C [Example 44, N-[2-methyl-4-chlorobenzoyl]-2-methoxy-4-methylphenylsulfonamide] | 4.73 |
| COc1c(C)cc(S(=O)(=O)NC(=O)c2ccc(Cl)cc2Cl)cc1C [Example 97, N-[2,4-dichlorobenzoyl]-4-methoxy-3,5-dimethylphenylsulfonamide] | 5.15 |
| N=C(NS(=O)(=O)c1ccc(F)c(Cl)c1)c1ccc(Cl)cc1 [Example 115, N-[3-chloro-4-fluorophenylsulfonyl]-4-chlorobenzamidine] | 4.47 |
| Cc1cccc(S(=O)(=O)NC(=O)c2ccc(Cl)cc2C)c1 [Example 55, N-[2-methyl-4-chlorobenzoyl]-3-methylphenylsulfonamide] | 5.02 |
| Cc1cccc(C(=O)NS(=O)(=O)c2ccc(Cl)cc2)c1Cl [Example 102, N-[2-chloro-3-methylbenzoyl]-4-chlorophenylsulfonamide] | 5.20 |
| COC(=O)c1cc(S(=O)(=O)NC(=O)c2ccc(Br)cc2Br)ccc1OC [Example 34, N-[2,4-dibromobenzoyl]-3-methoxycarbonyl-4-methoxyphenylsulfonamide] | 4.78 |
| O=C(NS(=O)(=O)c1ccccc1)c1ccc(Br)cc1Cl [Example 11, N-[2-chloro-4-bromobenzoyl]-phenylsulfonamide] | 5.26 |
| O=C(NS(=O)(=O)c1ccc(Cl)cc1)c1ccc(C(F)(F)F)cc1C(F)(F)F [Example 99, N-[2,4-bis-trifluoromethylbenzoyl]-4-chlorophenylsulfonamide] | 4.47 |
| N=C(NS(=O)(=O)c1ccc(F)c(Cl)c1)c1ccc(F)c(Cl)c1 [Example 116, N-[3-chloro-4-fluorophenylsulfonyl]-3-chloro-4-fluorobenzamidine] | 5.23 |
| Cc1ccc(C(=O)NS(=O)(=O)c2ccc(F)c(Cl)c2)c(Cl)c1 [Example 59, N-[2-chloro-4-methylbenzoyl]-3-chloro-4-fluorophenyl-sulfonamide] | 4.82 |

More lines, now with the values ahead:

| pIC50 | SMILES |
| --- | --- |
| 4.43 | O=C(NS(=O)(=O)c1ccc(Br)c(Br)c1)c1ccc(Cl)cc1Cl [Example 24, N-[2,4-dichlorobenzoyl]-3,4-dibromophenylsulfonamide] |
| 5.80 | Cc1ccc(S(=O)(=O)NC(=O)c2ccc(Cl)cc2Cl)cc1 [Example 86, N-[2,4-dichlorobenzoyl]-4-methylphenylsulfonamide] |
| 4.92 | O=C(NS(=O)(=O)c1ccc(Cl)cc1)c1ccc([N+](=O)[O-])cc1Cl [Example 10, N-[2-chloro-4-nitrobenzoyl]-4-chlorophenylsulfonamide] |
| 4.46 | O=C(NS(=O)(=O)c1ccc(OC(F)(F)F)cc1)c1ccc(Cl)cc1Cl [Example 96, N-[2,4-dichlorobenzoyl]-4-trifluoromethoxyphenyl-sulfonamide] |
| 4.76 | O=C(NS(=O)(=O)c1ccc(Cl)c(Cl)c1)c1ccc(Cl)cc1Cl [Example 92, N-[2,4-dichlorobenzoyl]-3,4-dichlorophenylsulfonamide] |
| 4.91 | O=C(NS(=O)(=O)c1ccc(O)cc1)c1ccc(Cl)cc1Cl [Example 82, N-[2,4-dichlorobenzoyl]-4-hydroxyphenyl-sulfonamide] |
| 5.77 | O=C(NS(=O)(=O)c1ccc(F)c(Cl)c1)c1ccc(Cl)cc1Cl [Example 9, N-[2,4-dichlorobenzoyl]-3-chloro-4-fluorophenylsulfonamide] |
| 5.38 | O=C(NS(=O)(=O)c1cccc(Br)c1)c1ccc(Cl)cc1Cl [Example 1, N-[2,4-dichlorobenzoyl]-3-bromophenylsulfonamide] |
| 4.82 | O=C(NS(=O)(=O)c1ccc(Cl)cc1)c1ccc(Cl)cc1Cl [Example 111, N-[2,4-dichlorobenzoyl]-4-chlorophenylsulfonamide] |
| 4.92 | O=C(NS(=O)(=O)c1ccc([N+](=O)[O-])cc1)c1ccc(Cl)cc1Cl [Example 103, N-[2,4-dichlorobenzoyl]-4-nitrophenylsulfonamide] |
| 4.73 | O=C(NS(=O)(=O)c1ccc(-c2ccoc2)cc1)c1ccc(Cl)cc1Cl [Example 126, N-[2,4-dichlorobenzoyl]-4-fur-3-yl-phenylsulfonamide] |
| 5.11 | COC(=O)c1cc(S(=O)(=O)NC(=O)c2ccc(Cl)cc2Br)ccc1OC [Example 32, N-[2-bromo-4-chlorobenzoyl]-3-methoxycarbonyl-4-methoxyphenylsulfonamide] |
| 5.25 | O=C(NS(=O)(=O)c1ccc(-c2cccc3cccnc23)cc1)c1ccc(Cl)cc1Cl [Example 124, N-[2,4-dichlorobenzoyl]-4-quinolin-8-yl-phenylsulfonamide] |

System: not given
Experiment: not given
Conditions: not given

| melting point [°C] | SMILES |
| --- | --- |
| 155 to 157 | O=C(NS(=O)(=O)c1ccc(O)cc1)c1ccc(Cl)cc1Cl [Example 117, N-[2,4-dichlorobenzoyl]-4-hydroxyphenylsulfonamide] |
